Measured values as given in US9963448B2, “Bicyclic inhibitors of PAD4” (Padlock Therapeutics, Inc., priority 2015, dated 2018).
Where a name gives a salt, the structure may show the parent alone. Read-outs that look alike come from different tables or passages of the source.

What was measured:
hPAD4 = hPAD4 (Homo sapiens, UniProt Q9UM07); experiment: hPAD4 RFMS (RapidFire mass spectrometry) PAD4 inhibition assay; format: biochemical; conditions: hPAD4 enzyme, RFMS readout;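 as to hPAD4 RFMS pIC50: grade E means pIC50 at most 4 and F means pIC50 4.0 to 5.0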
Method: (§1) Compounds of the present invention were assayed as inhibitors of PAD4 using the assay protocol described below.
(§2) Compound stock solutions were stored at RT. […] Final assay conditions were as follows:
(§3) Total incubation time: 65 mins at 37° C.
(§4) Stop solution: 40 μl 5% TCA in ACN
(§5) The compound numbers correspond to the compound numbers in Table 1. […] The term pIC50=−log(IC50). […] “NA” stands for “not assayed.”

mPAD4 = mPAD4 (Mus musculus, UniProt Q9Z183); experiment: mPAD4 RFMS PAD4 inhibition assay; format: biochemical; conditions: mPAD4, RFMS readout;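 as to mPAD4 RFMS pIC50: grade E means pIC50 at most 4 and F means pIC50 4.0 to 5.0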
Method: as §1, §2, §3, §4, §5

[1] = pIC50=−log(IC50), read-out: hPAD4 RFMS pIC50 (converted)
[2] = pIC50=−log(IC50), read-out: mPAD4 RFMS pIC50 (converted)

Chain of mPAD4 (Q9Z183 whole entry): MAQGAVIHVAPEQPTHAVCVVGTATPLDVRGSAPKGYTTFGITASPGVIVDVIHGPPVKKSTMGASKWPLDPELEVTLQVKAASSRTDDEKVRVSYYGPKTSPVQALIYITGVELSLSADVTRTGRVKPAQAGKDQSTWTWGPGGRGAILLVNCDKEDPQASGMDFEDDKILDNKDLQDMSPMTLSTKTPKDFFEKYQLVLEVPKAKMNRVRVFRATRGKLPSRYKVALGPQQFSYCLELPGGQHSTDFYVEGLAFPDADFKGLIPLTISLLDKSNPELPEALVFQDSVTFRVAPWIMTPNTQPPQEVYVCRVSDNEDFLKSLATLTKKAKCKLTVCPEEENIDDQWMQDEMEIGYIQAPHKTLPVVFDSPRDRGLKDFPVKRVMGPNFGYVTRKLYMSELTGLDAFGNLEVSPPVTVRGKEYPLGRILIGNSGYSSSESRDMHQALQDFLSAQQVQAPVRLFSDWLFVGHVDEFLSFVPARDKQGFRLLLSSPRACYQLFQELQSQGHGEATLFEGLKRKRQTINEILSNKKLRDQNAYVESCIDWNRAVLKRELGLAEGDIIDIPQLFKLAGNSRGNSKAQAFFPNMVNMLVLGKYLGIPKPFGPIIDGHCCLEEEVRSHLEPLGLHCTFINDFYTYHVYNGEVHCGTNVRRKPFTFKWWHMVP
Chain of hPAD4 (Q9UM07 whole entry): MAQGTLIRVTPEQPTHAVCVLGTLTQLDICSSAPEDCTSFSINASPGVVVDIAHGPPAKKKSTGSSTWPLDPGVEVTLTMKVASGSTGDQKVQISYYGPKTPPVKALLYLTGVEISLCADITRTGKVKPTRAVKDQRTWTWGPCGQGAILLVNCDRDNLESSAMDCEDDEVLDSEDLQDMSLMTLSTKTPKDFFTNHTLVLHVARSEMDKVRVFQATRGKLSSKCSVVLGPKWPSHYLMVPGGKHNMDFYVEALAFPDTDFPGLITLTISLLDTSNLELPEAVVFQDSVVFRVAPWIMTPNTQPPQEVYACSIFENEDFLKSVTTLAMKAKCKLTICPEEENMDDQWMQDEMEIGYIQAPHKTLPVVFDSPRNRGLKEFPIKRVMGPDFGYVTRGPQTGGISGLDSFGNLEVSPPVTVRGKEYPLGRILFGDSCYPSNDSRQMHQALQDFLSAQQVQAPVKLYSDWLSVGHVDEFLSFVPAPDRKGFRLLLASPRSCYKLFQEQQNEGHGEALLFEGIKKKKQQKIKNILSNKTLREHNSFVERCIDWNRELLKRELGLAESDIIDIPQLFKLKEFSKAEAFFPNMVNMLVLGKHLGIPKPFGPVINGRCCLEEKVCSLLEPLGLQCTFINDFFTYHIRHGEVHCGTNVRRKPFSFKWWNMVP

Compound	IC50 (hPAD4; [1]) [nM]	IC50 (hPAD4; read-out: hPAD4 RFMS IC50) [nM]	IC50 (mPAD4; [2]) [nM]	IC50 (mPAD4; read-out: mPAD4 RFMS IC50) [nM]	hPAD4 RFMS pIC50 (hPAD4; pIC50=−log(IC50))	mPAD4 RFMS pIC50 (mPAD4; pIC50=−log(IC50))
COc1cc(C(=O)N2CC(N)CC(C#N)C2)cc2nc(-c3cc4cccnc4n3CC3CC3)n(C)c12 (racemic) [Compound I-82, 5-Amino-1-{2-[1-(cyclopropylmethyl)-1H-pyrrolo[2,3-b]pyridin-2-yl]-7-methoxy-1-methyl-1H-1,3-benzodiazole-5-carbonyl}piperidine-3-carbonitrile]	10000 to 100000	> 10000	10000 to 100000	> 10000		
COc1cc(C(=O)N2CCC(OC(F)F)C(N)C2)cc2nc(-c3cc4cccnc4n3CC3CC3)n(C)c12 (racemic) [Compound I-86, rac-(3R,4S)-1-{2-[1-(cyclopropylmethyl)-1H-pyrrolo[2,3-b]pyridin-2-yl]-7-methoxy-1-methyl-1H-1,3-benzodiazole-5-carbonyl}-4-(difluoromethoxy)piperidin-3-amine]	< 1000	< 1000	< 1000	< 1000		
COc1cc(C(=O)N2CC3CCC2C3N)cc2nc(-c3cc4cccnc4n3CC3CC3)n(C)c12 (stereo not shown) [Compound I-81]	< 1000	< 1000	< 1000	< 1000		
CCn1c(-c2nc3cc(C(=O)N4CCC[C@@H](N)C4)cc(OC)c3n2C[C@H]2C[C@@](C)(OC)C2)cc2cccnc21 [Compound I-163]	1000 to 10000	1000 to 5000	< 1000	< 1000		
CCn1c(-c2nc3cc(C(=O)N4C[C@H]5CC[C@@H]4[C@@H]5N)cc(OC)c3n2C)cc2ccc(C(F)(F)F)nc21 [Compound I-183]	< 1000	< 1000	< 1000	< 1000		
CCn1c(-c2nc3cc(C(=O)N4C[C@H]5CC[C@@H]4[C@@H]5N)cc(OC)c3n2C)cc2ccc(OC(F)F)nc21 [Compound I-200, (1R,4R,7R)-2-{2-[6-(difluoromethoxy)-1-ethyl-1H-pyrrolo[2,3-b]pyridin-2-yl]-7-methoxy-1-methyl-1H-1,3-benzodiazole-5-carbonyl}-2-azabicyclo[2.2.1]heptan-7-amine]	< 1000	< 1000	< 1000	< 1000		
COc1cc(C(=O)N2C[C@@H](N)C[C@H](F)C2)cc2nc(-c3cc4cccnc4n3CC3CC3)n(C)c12 [Compound I-34]	< 1000	< 1000	< 1000	< 1000		
Cn1c(-c2cc3cccnc3n2CC2CC2)nc2cc(C(=O)N3C[C@H]4CC[C@@H]3[C@@H]4N)c(F)cc21 [Compound I-194]	1000 to 10000	1000 to 5000	1000 to 10000	5000 to 10000		
COc1cc(C(=O)N2C[C@H](N)CC[C@@H]2CO)cc2nc(-c3cc4cccnc4n3CC3CC3)n(C)c12 (racemic) [Compound I-221, rac-[(2R,5R)-5-amino-1-{2-[1-(cyclopropylmethyl)-1H-pyrrolo[2,3-b]pyridin-2-yl]-7-methoxy-1-methyl-1H-1,3-benzodiazole-5-carbonyl}piperidin-2-yl]methanol]	10000 to 100000	> 10000	1000 to 10000	1000 to 5000		
CCn1c(-c2cc3cccnc3n2CC2CC2)nc2cc(C(=O)N3C[C@@H](N)C[C@H](F)C3)cc(OC)c21 [Compound I-71]	1000 to 10000	1000 to 5000	< 1000	< 1000		
CCn1c(-c2nc3cc(C(=O)N4CCC[C@@H](N)C4)cc(OC)c3n2CC2CC(F)(F)C2)cc2cccnc21 [Compound I-180]	1000 to 10000	1000 to 5000	< 1000	< 1000		
COc1cc(C(=O)N2CCC3(CNCCC3(F)F)C2)cc2nc(-c3cc4cccnc4n3CC3CC3)n(C)c12 (racemic) [Compound I-97]	10000 to 100000	> 10000	10000 to 100000	> 10000		
COc1cc(C(=O)N2CCC[C@@H](N)C2)cc2nc(-c3cc4cccnc4n3[C@@H](C)C3CC3)n(C)c12 [Compound I-102, (3R)-1-(2-{1-[(1S)-1-cyclopropylethyl]-1H-pyrrolo[2,3-b]pyridin-2-yl}-7-methoxy-1-methyl-1H-1,3-benzodiazole-5-carbonyl)piperidin-3-amine]	1000 to 10000	< 1000	1000 to 10000	1000 to 5000		
COc1ccc2cc(-c3nc4cc(C(=O)N5CCC[C@@H](N)C5)ccc4n3C)n(CC3CC3)c2n1 [Compound I-70, (3R)-1-{2-[1-(Cyclopropylmethyl)-6-methoxy-1H-pyrrolo[2,3-b]pyridin-2-yl]-1-methyl-1H-1,3-benzodiazole-5-carbonyl}piperidin-3-amine]	< 1000	< 1000	< 1000	< 1000		
COc1cc(C(=O)N2CC[C@H](F)[C@H](N)C2)cc2nc(-c3cc4cccnc4n3CC3CC3)n(C)c12 [Compound I-90]	1000 to 10000	1000 to 5000	1000 to 10000	1000 to 5000		
Cn1c(-c2cc3cccnc3n2CC2CC2)nc2cc(C(=O)N3CC[C@H]4CCN[C@H]4C3)cc(OC(F)F)c21 (single isomer, unassigned) [Compound I-25, hydrochloride]	1000 to 10000	1000 to 5000	1000 to 10000	1000 to 5000		

Compound	IC50 (hPAD4; [1]) [nM]	IC50 (hPAD4; read-out: hPAD4 RFMS IC50) [nM]	IC50 (mPAD4; [2]) [nM]	IC50 (mPAD4; read-out: mPAD4 RFMS IC50) [nM]	hPAD4 RFMS pIC50 (hPAD4; pIC50=−log(IC50))	mPAD4 RFMS pIC50 (mPAD4; pIC50=−log(IC50))
CCCn1c(-c2nc3cc(C(=O)N4C[C@H]5CC[C@@H]4[C@@H]5N)cc(OC)c3n2C)cc2cccnc21 [Compound I-154]	< 1000	< 1000	< 1000	< 1000		
CO[C@@H]1CCN(C(=O)c2cc(OC(F)F)c3c(c2)nc(-c2cc4cccnc4n2CC2CC2)n3C)C[C@@H]1N [Compound I-133]		> 10000		1000 to 5000	F (pIC50 of 4.0-5.0)	G (pIC50 of 5.0-6.0)
COc1cc(C(=O)N2CC[C@@H](F)[C@@H](N)C2)cc2nc(-c3cc4cccnc4n3CC3CC3)n(C)c12 [Compound I-91]	< 1000	< 1000	< 1000	< 1000		
COc1cc(C(=O)N2C[C@H]3CC[C@@H]2[C@@H]3N)cc2nc(-c3cc4cccnc4n3CC3CC3)n(CC(F)F)c12 [Compound I-233]	< 1000	< 1000	< 1000	< 1000		
COc1cc(C(=O)N2C[C@H](N)CC[C@H]2CO)cc2nc(-c3cc4cccnc4n3CC3CC3)n(C)c12 (racemic) [Compound I-220, Rac-[(2R,5S)-5-amino-1-{2-[1-(cyclopropylmethyl)-1H-pyrrolo[2,3-b]pyridin-2-yl]-7-methoxy-1-methyl-1H-1,3-benzodiazole-5-carbonyl}piperidin-2-yl]methanol]		> 10000		> 10000	E/F	E/F
COc1ccc2cc(-c3nc4cc(C(=O)N5CC[C@@H](OC)[C@@H](N)C5)ccc4n3C)n(CC3CC3)c2n1 [Compound I-127]	1000 to 10000	1000 to 5000	1000 to 10000	1000 to 5000		
Cn1c(-c2cc3cccnc3n2CC2CC2)nc2cc(C(=O)N3C[C@@H](N)C[C@H](F)C3)cc(OCC(F)F)c21 [Compound I-72]	1000 to 10000	1000 to 5000	< 1000	< 1000		
CCn1c(-c2nc3cc(C(=O)N4C[C@H]5CC[C@@H]4[C@@H]5N)cc(OC)c3n2C)cc2cccnc21 (racemic) [Compound I-143]	< 1000	< 1000	< 1000	< 1000		
COc1ccc2cc(-c3nc4cc(C(=O)N5CCC[C@@H](N)C5)cc(OC)c4n3CC(F)F)n(CC3CC3)c2n1 [Compound I-94, (3R)-1-{2-[1-(cyclopropylmethyl)-6-methoxy-1H-pyrrolo[2,3-b]pyridin-2-yl]-1-(2,2-difluoroethyl)-7-methoxy-1H-1,3-benzodiazole-5-carbonyl}piperidin-3-amine]	< 1000	< 1000	< 1000	< 1000		
CCn1c(-c2cc3ccc(OC)nc3n2CC2CC2)nc2cc(C(=O)N3CCC[C@@H](N)C3)cc(OC)c21 [Compound I-106]	< 1000	< 1000	< 1000	< 1000		
COc1cc(C(=O)N2CC3CCC2C(N)C3)cc2nc(-c3cc4cccnc4n3CC3CC3)n(C)c12 (stereo not shown) [Compound I-129]	1000 to 10000	1000 to 5000	1000 to 10000	1000 to 5000		
COc1cc(C(=O)N2C[C@H]3CC[C@@H]2[C@@H]3N)cc2nc(-c3cc4ccc(C(F)(F)F)nc4n3CC3CC3)n(C)c12 [Compound I-196]	< 1000	< 1000	< 1000	< 1000		
COc1cc(C(=O)N2CC[C@H]3CCN[C@H]3C2)cc2nc(-c3cc4cccnc4n3CC3CC3)n(C)c12 [Compound I-17]	10000 to 100000	> 10000	10000 to 100000	> 10000		
CN[C@@H]1[C@@H]2CC[C@H]1N(C(=O)c1cc(OC)c3c(c1)nc(-c1cc4cccnc4n1CC1CC1)n3C)C2 [Compound I-237, (1R,4R,7R)-2-{2-[1-(Cyclopropylmethyl)-1H-pyrrolo[2,3-b]pyridin-2-yl]-7-methoxy-1-methyl-1H-1,3-benzodiazole-5-carbonyl}-N-methyl-2-azabicyclo[2.2.1]heptan-7-amine]	10000 to 100000	> 10000	10000 to 100000	> 10000		
COc1cc(C(=O)N2CCC[C@@H](N)C2)cc2nc(-c3cc4ccc(C(C)(C)O)nc4n3CC3CC3)n(C)c12 [Compound I-211]	< 1000	< 1000	< 1000	< 1000		
